The source of these data is patent US7858630B2, “D3 and 5-HT2A receptor modulators” (Hoffmann-La Roche Inc., priority 2008, dated 2010).

For assay [1], the target named is T1, human serotonin 5-HT2A receptor (Homo sapiens, UniProt P28223).
T1 construct: expressed in transfected cells; host or cells: HEK-293 EBNA cells, transient transfection; membrane preparation
As to the kind of experiment: Radioligand binding ([3H]-ketanserin) to membranes of HEK-293 EBNA cells expressing human 5-HT2A receptor. The following applies: 1.1 nM [3H]-ketanserin, HEK-293 EBNA membranes, 1 h at RT. The protocol:
(§1) The ability of the compounds to bind to the 5-HT2A, D3 and D2 receptors was determined using radioligand binding to cloned receptors selectively expressed in HEK-293 EBNA cells.
(§2) Membrane Preparation for Human D2, Human D3 and Human 5-HT2A Receptors
(§3) HEK-293 EBNA cells were transiently transfected with expression plasmids encoding for the human D2 or D3 dopamine- or for the human 5-HT2A serotonin receptor, respectively. The cells were harvested 48 h post-transfection, washed three times with cold PBS and stored at −80° C. prior to use. The pellet was suspended in cold 50 mM Tris-HCl buffer containing 10 mM EDTA (pH 7.4) and homogenized with a Polytron (Kinematica AG, Basel, Switzerland) for 20-30 sec at 12.000 rpm. After centrifugation at 48.000×g for 30 min at 4° C., the pellet was resuspended in cold 10 mM Tris-HCl buffer containing 0.1 mM EDTA (pH 7.4), homogenized, and centrifuged as above. This pellet was further resuspended in a smaller volume of ice cold 10 mM Tris-HCl buffer containing 0.1 mM EDTA (pH 7.4) and homogenized with a Polytron for 20-30 sec at 12.000 rpm. The protein content of this homogenate was determined with the Bio-Rad (Bradford) Protein Assay (Biorad Laboratories GmbH, München, Germany) according to the instructions of the manufacturer using gamma globulin as the standard. This homogenate was stored at −80° C. in aliquots and thawed immediately prior to use.
(§4) Radioligand Binding Assay Conditions
(§5) Aliquots of membrane preparations were thawed at RT, resupended in assay buffer (D2, D3: 50 mM Tris-HCl, 120 mM NaCl, 5 mM MgCl2, 1 mM EDTA, 5 mM KCl, 1.5 mM CaCl2, pH=7.4; 5-HT2A: 50 mM Tris-HCl, 10 mM MgCl2, 1 mM EGTA, pH=7.4), homogenized with a Polytron for 20-30 sec at 12.000 rpm and adjusted to a final concentration of approximately 7.5 μg protein/well (D2, D3) and 15 μg protein/well (5-HT2A), respectively.
(§6) The binding affinity (Ki) of the compounds was determined using radioligand binding. Membranes were incubated in a total volume of 200 μl with a fixed concentration of radioligand (final concentration approximately 0.7 nM [^3H]-spiperone for D2, 0.5 nM [^3H]-spiperone for D3, and 1.1 nM [^3H]-ketanserin for 5-HT2A) and ten concentrations of test compound in ranging between 10 μM-0.1 nM for 1 h at RT. At the end of the incubation, the reaction mixtures were filtered on to unifilter 96-well white microplates with bonded GF/C filters (Packard BioScience, Zurich, Switzerland; preincubated for 1 h in 0.1% polyethylenimine (PEI) in assay buffer) with a Filtermate 196 harvester (Packard BioScience) and washed 3 times with cold assay buffer. The nonspecific binding was determined with equally composed reaction mixtures in the presence of 10 μM unlabelled spiperone. Per well 45 μl of Microscint 40 (Perkin Elmer, Schwerzenbach, Switzerland) was added, plates for sealed, shaken for 20 min and counted for 3 min on a Topcount Microplate Scintillation Counter (Canberra Packard SA, Zurich, Switzerland) with quenching correction.
(§7) The CPM value for each duplicate of a concentration of competing compound was averaged (y1), then the % specific binding was calculated according to the equation (((y1−non-specific)/(total binding-non-specific))×100). Graphs were plotted with the % specific binding using XLfit, a curve fitting program that iteratively plots the data using Levenburg Marquardt algorithm. The single site competition analysis equation used was y=A+((B−A)/(1+((x/C)^D))), where y is the % specific binding, A is the minimum y, B is the maximum y, C is the IC50, x is the log10 of the concentration of the competing compound and D is the slope of the curve (the Hill Coefficient). From these curves the IC50 (inhibition concentration at which 50% specific binding of the radioligand was displaced) and Hill coefficient were determined. […]

For assay [2], the target named is T2, human dopamine D3 receptor (Homo sapiens, UniProt P35462).
T2 construct: expressed in transfected cells; host or cells: HEK-293 EBNA cells, transient transfection; membrane preparation
As to the kind of experiment: Radioligand binding ([3H]-spiperone) to membranes of HEK-293 EBNA cells expressing human D3 receptor. The following applies: human D3, 0.5 nM [3H]-spiperone, HEK-293 EBNA membranes, 1 h at RT. The method, then:
as §1, §2, §3, §4, §5, §6, §7

Assay [3] addresses T3, human dopamine D2 receptor (Homo sapiens, UniProt P14416).
T3 construct: expressed in transfected cells; host or cells: HEK-293 EBNA cells, transient transfection; membrane preparation
As to the kind of experiment: Radioligand binding ([3H]-spiperone) to membranes of HEK-293 EBNA cells expressing human D2 receptor. The following applies: human D2, 0.7 nM [3H]-spiperone, HEK-293 EBNA membranes, 1 h at RT. The protocol:
as §1, §2, §3, §4, §5, §6, §7

Structures are written as SMILES.

T2 sequence (P35462 whole entry): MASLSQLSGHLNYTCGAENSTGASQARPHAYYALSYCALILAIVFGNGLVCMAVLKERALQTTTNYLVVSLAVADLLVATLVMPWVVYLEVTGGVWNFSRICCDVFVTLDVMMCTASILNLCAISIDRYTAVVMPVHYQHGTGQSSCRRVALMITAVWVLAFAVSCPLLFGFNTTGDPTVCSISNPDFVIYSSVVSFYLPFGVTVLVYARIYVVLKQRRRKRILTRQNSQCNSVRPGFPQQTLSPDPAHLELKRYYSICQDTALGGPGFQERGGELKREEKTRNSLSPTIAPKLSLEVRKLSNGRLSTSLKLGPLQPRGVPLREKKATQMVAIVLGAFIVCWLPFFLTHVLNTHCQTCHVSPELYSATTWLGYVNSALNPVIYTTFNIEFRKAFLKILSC
T3 sequence (P14416 whole entry): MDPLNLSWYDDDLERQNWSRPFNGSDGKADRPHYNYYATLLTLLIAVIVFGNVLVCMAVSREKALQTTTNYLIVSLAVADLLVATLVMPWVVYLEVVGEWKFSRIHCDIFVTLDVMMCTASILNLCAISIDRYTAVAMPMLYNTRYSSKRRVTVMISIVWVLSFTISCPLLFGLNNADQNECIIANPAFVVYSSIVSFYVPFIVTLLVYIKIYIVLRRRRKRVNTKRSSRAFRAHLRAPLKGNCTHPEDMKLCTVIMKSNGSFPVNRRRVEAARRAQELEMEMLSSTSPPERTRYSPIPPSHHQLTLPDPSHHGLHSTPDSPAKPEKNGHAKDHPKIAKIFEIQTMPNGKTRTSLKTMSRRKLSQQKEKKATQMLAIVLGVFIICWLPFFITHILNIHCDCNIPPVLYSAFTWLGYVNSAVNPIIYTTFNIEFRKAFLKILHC
T1 sequence (P28223 whole entry): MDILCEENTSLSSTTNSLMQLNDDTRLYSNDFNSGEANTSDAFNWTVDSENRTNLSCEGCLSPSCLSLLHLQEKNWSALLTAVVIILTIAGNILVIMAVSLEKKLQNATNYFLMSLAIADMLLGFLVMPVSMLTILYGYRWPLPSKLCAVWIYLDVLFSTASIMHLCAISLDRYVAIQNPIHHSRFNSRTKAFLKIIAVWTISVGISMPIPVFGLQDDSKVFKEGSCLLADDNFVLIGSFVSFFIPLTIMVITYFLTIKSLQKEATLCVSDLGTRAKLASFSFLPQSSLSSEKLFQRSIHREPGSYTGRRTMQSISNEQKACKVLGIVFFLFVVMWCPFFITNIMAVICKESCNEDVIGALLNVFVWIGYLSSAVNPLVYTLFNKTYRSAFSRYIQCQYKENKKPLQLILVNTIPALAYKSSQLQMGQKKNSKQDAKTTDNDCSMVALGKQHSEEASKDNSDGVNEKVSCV

The term Ki denotes a dissociation constant, usually derived from enzyme kinetics or from competition with a known ligand. With `Cc1ccc2c(N3CCN(CC[C@H]4CC[C@H](NC(=O)CS(C)(=O)=O)CC4)CC3)noc2c1` [Example 105, 2-Methanesulfonyl-N-trans-(4-{2-[4-(6-methyl-benzo[d]isoxazol-3-yl)-piperazin-1-yl]-ethyl}-cyclohexyl)-acetamide], the inhibitory constant (Ki) in assay [1] turned out to be 0.004 µM; in assay [2], 0.005 µM; in assay [3] it was 0.17 µM.

For `O=C(CC1CCOCC1)N[C@H]1CC[C@H](CCN2CCN(c3noc4cc(Cl)c(Cl)cc34)CC2)CC1` [Example 97, N-trans-(4-{2-[4-(5,6-Dichloro-benzo[d]isoxazol-3-yl)-piperazin-1-yl]-ethyl}-cyclohexyl)-2-(tetrahydro-pyran-4-yl)-acetamide], the Ki in assay [1] was 0.0307 µM; in assay [2], 0.00945 µM; in assay [3] it was 11.6 µM.

Regarding `O=C(CC1OCCCO1)N[C@H]1CC[C@H](CCN2CCN(c3noc4cc(F)c(Cl)cc34)CC2)CC1` [Example 77, N-trans-(4-{2-[4-(5-Chloro-6-fluoro-benzo[d]isoxazol-3-yl)-piperazin-1-yl]-ethyl}-cyclohexyl)-2-[1,3]dioxan-2-yl-acetamide], the Ki in assay [1] came to 0.00226 µM; in assay [2], 0.00606 µM; in assay [3], 2.3 µM.

For the compound `COCCC(=O)N[C@H]1CC[C@H](CCN2CCN(c3noc4cc(Cl)c(Cl)cc34)CC2)CC1` [Example 94, N-trans-(4-{2-[4-(5,6-Dichloro-benzo[d]isoxazol-3-yl)-piperazin-1-yl]-ethyl}-cyclohexyl)-3-methoxy-propionamide], the figures for the Ki in assay [1], in assay [2] and in assay [3] were 0.0263 µM, 0.00223 µM and 1.97 µM, respectively.

Take `O=C(CC1COCCO1)N[C@H]1CC[C@H](CCN2CCN(c3noc4ccc(F)cc34)CC2)CC1` (stereo partly drawn) [Example 15, 2-[1,4]Dioxan-2-yl-N-trans-(4-{2-[4-(5-fluoro-benzo[d]isoxazol-3-yl)-piperazin-1-yl]-ethyl}-cyclohexyl)-acetamide]: the Ki worked out at 0.0154 µM in assay [1], 0.00634 µM in assay [2] and 0.752 µM in assay [3].

With `O=C(CC1CC1)N[C@H]1CC[C@H](CCN2CCN(c3noc4cc(Cl)ccc34)CC2)CC1` [Example 52, N-trans-(4-{2-[4-(6-Chloro-benzo[d]isoxazol-3-yl)-piperazin-1-yl]-ethyl}-cyclohexyl)-2-cyclopropyl-acetamide], the results for the inhibition constant Ki in assay [1], in assay [2] and in assay [3] were 0.00507 µM, 0.00384 µM and 0.315 µM, respectively.

Take `CCC(=O)N[C@H]1CC[C@H](CCN2CCN(c3noc4cc(Cl)ccc34)CC2)CC1` [Example 41, N-trans-(4-{2-[4-(6-Chloro-benzo[d]isoxazol-3-yl)-piperazin-1-yl]-ethyl}-cyclohexyl)-propionamide]: the figures for the Ki in assay [1], in assay [2] and in assay [3] were 0.0109 µM, 0.0087 µM and 0.675 µM, respectively.

On to `COC(CC(=O)N[C@H]1CC[C@H](CCN2CCN(c3noc4cc(Cl)ccc34)CC2)CC1)OC` [Example 55, N-trans-(4-{2-[4-(6-Chloro-benzo[d]isoxazol-3-yl)-piperazin-1-yl]-ethyl}-cyclohexyl)-3,3-dimethoxy-propionamide], for which the Ki in assay [1] was determined as 0.0076 µM; in assay [2], 0.00616 µM; in assay [3] it was 0.396 µM.

Turning to `CS(=O)(=O)CC(=O)N[C@H]1CC[C@H](CCN2CCN(c3noc4cc(F)c(Cl)cc34)CC2)CC1` [Example 89, N-trans-(4-{2-[4-(5-Chloro-6-fluoro-benzo[d]isoxazol-3-yl)-piperazin-1-yl]-ethyl}-cyclohexyl)-2-methanesulfonyl-acetamide], the Ki in assay [1] was found to be 0.00289 µM; in assay [2], 0.00572 µM; in assay [3], 11.2 µM.

`COCCC(=O)N[C@H]1CC[C@H](CCN2CCN(c3noc4ccc(C)cc34)CC2)CC1` [Example 104, 3-Methoxy-N-trans-(4-{2-[4-(5-methyl-benzo[d]isoxazol-3-yl)-piperazin-1-yl]-ethyl}-cyclohexyl)-propionamide]: the results for the Ki in assay [1], in assay [2] and in assay [3] were 0.0209 µM, 0.00259 µM and 0.554 µM, respectively.

Take `CSCCC(=O)N[C@H]1CC[C@H](CCN2CCN(c3noc4cc(F)c(Cl)cc34)CC2)CC1` [Example 81, N-trans-(4-{2-[4-(5-Chloro-6-fluoro-benzo[d]isoxazol-3-yl)-piperazin-1-yl]-ethyl}-cyclohexyl)-3-methylsulfanyl-propionamide]: the figures for the Ki in assay [1], in assay [2] and in assay [3] were 0.00528 µM, 0.00438 µM and 11.1 µM, respectively.

`O=C(N[C@H]1CC[C@H](CCN2CCN(c3noc4cc(Cl)ccc34)CC2)CC1)[C@H]1CCOC1` [Example 46, (S)-Tetrahydro-furan-3-carboxylic acid (4-{2-[4-(6-chloro-benzo[d]isoxazol-3-yl)-piperazin-1-yl]-ethyl}-cyclohexyl)-amide]: the figures for the Ki in assay [1], in assay [2] and in assay [3] were 0.0109 µM, 0.0209 µM and 0.488 µM, respectively.

As to `CCC(=O)N[C@H]1CC[C@H](CCN2CCN(c3noc4cc(F)c(Cl)cc34)CC2)CC1` [Example 86, N-trans-(4-{2-[4-(5-Chloro-6-fluoro-benzo[d]isoxazol-3-yl)-piperazin-1-yl]-ethyl}-cyclohexyl)-propionamide], the values for the inhibition constant Ki in assay [1], in assay [2] and in assay [3] were 0.00953 µM, 0.00516 µM and 0.25 µM, respectively.

For `O=C(C[C@H]1CCCCO1)N[C@H]1CC[C@H](CCN2CCN(c3noc4cc(Cl)ccc34)CC2)CC1` [Example 49, N-trans-(4-{2-[4-(6-Chloro-benzo[d]isoxazol-3-yl)-piperazin-1-yl]-ethyl}-cyclohexyl)-2-(R)-tetrahydro-pyran-2-yl-acetamide], the Ki in assay [1] was 0.00848 µM; in assay [2] it was 0.0206 µM; in assay [3], 1.02 µM.

With `CS(=O)(=O)N[C@H]1CC[C@H](CCN2CCN(c3noc4ccc(F)cc34)CC2)CC1` [Example 14, N-trans-(4-{2-[4-(5-Fluoro-benzo[d]isoxazol-3-yl)-piperazin-1-yl]-ethyl}-cyclohexyl)-methanesulfonamide], the Ki in assay [1] was 0.0281 µM; in assay [2], 0.00337 µM; in assay [3], 1.07 µM.

Regarding `O=C(C[C@H]1C[C@H](CO)C1)N[C@H]1CC[C@H](CCN2CCN(c3noc4ccc(F)cc34)CC2)CC1` [Example 20, N-trans-(4-{2-[4-(5-Fluoro-benzo[d]isoxazol-3-yl)-piperazin-1-yl]-ethyl}-cyclohexyl)-2-trans-(3-hydroxymethyl-cyclobutyl)-acetamide], the figures for the Ki in assay [1], in assay [2] and in assay [3] were 0.0193 µM, 0.00555 µM and 0.386 µM, respectively.

In the case of `COCCC(=O)N[C@H]1CC[C@H](CCN2CCN(c3noc4ccccc34)CC2)CC1` [Example 1, N-trans-{4-[2-(4-benzo[d]isoxazol-3-yl-piperazin-1-yl)-ethyl]-cyclohexyl}-3-methoxy-propionamide], the figures for the inhibition constant Ki in assay [1], in assay [2] and in assay [3] were 0.00488 µM, 0.0121 µM and 0.347 µM, respectively.

Regarding `COCC(=O)N[C@H]1CC[C@H](CCN2CCN(c3noc4ccc(F)cc34)CC2)CC1` [Example 9, N-trans-(4-{2-[4-(5-Fluoro-benzo[d]isoxazol-3-yl)-piperazin-1-yl]-ethyl}-cyclohexyl)-2-methoxy-acetamide], the Ki in assay [1] was 0.0233 µM; in assay [2] it was 0.00749 µM; in assay [3], 1.86 µM.
